Measured values published in US9289402B2, “Metal entrapped bioactive composites” (YISSUM RESEARCH DEVELOPMENT COMPANY OF THE HEBREW …, priority 2010, dated 2016).

Legend:
[1] = tested on: Escherichia coli strain MG1655; test: Bactericidal kinetic test towards E. coli MG1655; format: cell-based; settings: HEPES buffer 0.04 M pH 7.4, 26 °C, ca. 10^6 CFU/ml, concentrations of Table 1 (composite 50.0 ppm, AgNO3 0.1 ppm, CHD 0.75 ppm)
Experimental: A wild-type Escherichia coli strain MG1655 was used as a target organism to evaluate the bactericidal efficacy of the active ingredients i.e. CHD, metallic and ionic Ag and the CHD@Ag composite. Bacteria were maintained on MacConkey agar plates at […]. Prior to each experiment, an overnight culture was prepared by seeding single colonies into 30 ml of Luria Bertani (LB) broth at 37° C. with shaking. This overnight culture was then washed three times by centrifugation (10 min, 4850 rpm, at 25° C.) and resuspended in HEPES buffer (0.04M, pH 7.4). The resulting washed pellet was resuspended in HEPES and brought to an optical density (OD590) of 0.3 which corresponds to ca. 10^8 CFU/ml. Enumeration of bacteria was performed by serial dilution and plating via the pour-plate technique. The inoculated plates were incubated at 37° C. for 24 h and bacterial concentrations were determined by enumerating the resulting CFUs. The bactericidal kinetic tests were carried out in five acid-washed 500 ml Erlenmeyer flasks filled with 200 ml HEPES buffer. The flasks were capped with dense paper caps to allow oxygen supply. Typically, the active ingredients at the desired concentrations and combinations were added first and then 2.0 ml of the E. coli suspension was added to final concentration of ca. 10^6 CFU/ml. The active ingredients included one of the following: CHD@Ag composite, MeOH-extracted composite, AgNO3 solution, CHD solution and combinations thereof in final concentrations and the amounts which are summarized in Table 1. [table] The vessels were kept in an incubated shaker at 26° C. under dark conditions. The disinfection kinetics were followed by sequentially sampling 1.0 ml aliquots form the vessels at the designated times. These samples were neutralized by dilution (1:1) with a neutralizing solution (0.2% w/w sodium thioglycolate, 1.9% w/w sodium thiosulphate, 1% w/w Tween 80, 1.4% w/w lecithin) for 5 min. The efficiency of this neutralization procedure was validated in separate control experiments. […] The plates were incubated at 37° C. for 24 h and bacterial colonies were counted. […]

P. aeruginosa PU21 = test: Bactericidal kinetic test towards P. aeruginosa PU21; format: cell-based, Pseudomonas aeruginosa; settings: FIG. 8

| SMILES | biocidal activity towards E. coli MG1655 [1] | bactericidal effect towards P. aeruginosa PU21 (P. aeruginosa PU21) | biocidal activity towards E. coli MG1655 ([1]; listed as CHD solution) |
| --- | --- | --- | --- |
| O=[N+]([O-])[O-].[Ag+] [Ag^+, AgNO3] | no biocidal activity |  |  |
| N=C(NCCCCCCNC(=N)NC(=N)Nc1ccc(Cl)cc1)NC(=N)Nc1ccc(Cl)cc1.O=C(O)[C@H](O)[C@@H](O)[C@H](O)[C@H](O)CO.O=C(O)[C@H](O)[C@@H](O)[C@H](O)[C@H](O)CO [CHD, Chlorhexidine digluconate] | only slightly affected | weak bactericidal effect | only very weak biocidal activity |
